For test [1], the system named is Neomycin-bindender Riboschalter (2FA-markiert) (RNA, riboswitch, 2-fluoroadenine at 16, 17 and 24) GGCUGCUUGUCCUUUAAUGGUCCAGCC
Nature of the test: 19F NMR CEST. The settings on record: 303 K; derived from kex = [L]kon + koff = 88 ± 8 s^-1; subsaturating ligand.

The test system is the same in test [2]. Description: 19F NMR titration and CEST. The settings on record: 303 K; 215-1200 µM samples, 1 to 1.5 equivalents of ligand.

Structures are written as SMILES.

For `NC[C@H]1O[C@H](O[C@H]2[C@H](O[C@@H]3O[C@H](CO)[C@@H](O)[C@H]3O)[C@@H](O)[C@H](N)C[C@@H]2N)[C@H](N)[C@@H](O)[C@@H]1O`, the koff in test [1] was ~ 1.4 s^-1.

Turning to `NC[C@@H]1O[C@H](O[C@H]2[C@@H](O)[C@H](O[C@@H]3[C@@H](O)[C@H](N)C[C@H](N)[C@H]3O[C@H]3O[C@H](CN)[C@@H](O)[C@H](O)[C@H]3N)O[C@@H]2CO)[C@H](N)[C@@H](O)[C@@H]1O`, the binding result in test [2] is “yes”.

The record behind these values is article PMC10953372 (2023).
